Experimental data taken from patent US5166214A, “Use of imidazoles for the treatment of atherosclerosis” (priority 1990, dated 1992).

How the values were obtained:
[1] = target: T1, Acyl-CoA: Cholesterol Acyltransferase (ACAT) (Rattus norvegicus, UniProt Q7TQM4); assay: Inhibition of acyl-CoA: cholesterol acyltransferase (ACAT) in hepatic microsomes (in vitro); type: biochemical, rat (male Sprague Dawley); settings: rat hepatic microsomes, 75 μM 14C-oleoyl-CoA, pH 7.4, 37° C.; read-out: In Vitro ACAT IC50
T1 construct: Microsomes were obtained by differential centrifugation; from tissue; host or cells: liver microsomes of male Sprague Dawley rats
T1 sequence (Q7TQM4 1-524): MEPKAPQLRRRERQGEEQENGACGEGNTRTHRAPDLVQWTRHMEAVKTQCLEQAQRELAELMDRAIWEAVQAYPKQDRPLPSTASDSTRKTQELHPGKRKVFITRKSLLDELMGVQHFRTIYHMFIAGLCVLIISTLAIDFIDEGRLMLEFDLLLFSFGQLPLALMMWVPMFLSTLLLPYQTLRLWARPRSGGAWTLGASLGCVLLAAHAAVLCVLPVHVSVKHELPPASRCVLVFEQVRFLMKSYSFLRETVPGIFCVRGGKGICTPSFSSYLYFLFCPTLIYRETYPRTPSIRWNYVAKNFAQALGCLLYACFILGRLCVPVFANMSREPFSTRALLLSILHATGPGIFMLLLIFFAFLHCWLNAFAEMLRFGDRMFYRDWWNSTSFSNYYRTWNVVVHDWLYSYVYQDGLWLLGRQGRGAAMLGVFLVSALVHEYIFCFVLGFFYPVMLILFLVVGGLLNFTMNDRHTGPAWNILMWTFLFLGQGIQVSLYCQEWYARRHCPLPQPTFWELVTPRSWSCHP
Protocol: A. Assay of the Inhibition of Acyl-CoA: Cholesterol Acyltransferase (ACAT) in Hepatic Microsomes
The ability of the compounds to inhibit ACAT, the enzyme responsible for the intracellular synthesis of cholesteryl esters, was tested as follows. Male Sprague Dawley rats weighing 150-300 g, were fed rat chow ad libitum. The animals were fasted for twenty-four hours prior to being sacrificed by decapitation. The livers were perfused in situ with 50 ml of cold 0.25M sucrose, excised, and homogenized in three volumes of 0.1M phosphate buffer, pH 7.4, that contained 0.5 mM EDTA (ethylenediaminetetraacetic acid), 1.0 mM glutathione, 0.25M sucrose and […]. Microsomes were obtained by differential centrifugation; the supernatant from an initial spin at 15,000×g for 15 minutes was centrifuged at 105,000×g for 1 hour to pellet the microsomes. The microsomes were suspended in homogenization buffer, reisolated by centrifugation, and stored at -70° C. Microsomes were used within one month of preparation.
The control assay in a final volume of 200 μl consisted of 200 μg of microsomal protein, 75 μM ^14 C-oleoyl-CoA (10,000 dpm/nmol) in 0.1M phosphate, pH 7.4, that contained 1 mM glutathione. Compounds were added in 5 μl of DMSO (dimethyl sulfoxide) and additional controls were run with DMSO only. All components, except the oleoyl-CoA, were preincubated for 15 min. at 37° C. prior to the initiation of the reaction by the addition of oleoyl-CoA. The assay was terminated after 10 min by the addition of 4 ml of chloroform:methanol (2:1, v/v). 20,000 dpm of ^3 H-cholesteryl oleate and 10 μg of unlabeled cholesteryl oleate and oleic acid were added as an internal standard and carriers, respectively. After allowing 10 min. for lipid extraction, the samples were centrifuged at 1,000×g for 10 min. to separate the solvent layers. The chloroform layer containing the neutral lipids was spotted onto a Baker SI250-Pa silica gel TLC plate and the plate developed using a hexane: diethyl ether: acetic acid (170:30:1 v/v/v) mobile phase. The lipids were visualized by their interaction with iodine vapor and the cholesteryl ester spot was scraped into a scintillation vial and counted.

[2] = tested on: murine macrophage-like cell line J774.A1; assay: Inhibition of cholesterol esterification in mammalian cells (macrophage assay); type: cell-based; settings: J774.A1 macrophages loaded with ac-LDL, 14C-oleic acid; read-out: Cholesterol Esterification IC50
Protocol: B. Assay of the Inhibition of Cholesterol Esterification in Mammalian Cells
The esterification of cholesterol was determined in the murine macrophage-like cell line J774.A1. Cells were seeded in 35 mm wells at a density of 300,000 cells per well in 2 mls of Dulbecco's Eagle Medium (DMEM) supplemented with 10% fetal bovine serum (FBS). Cells were incubated at 37° C. in an atmosphere of 5% CO2 and 93% humidity. After 24 hours the media was changed to 0.68 mls 10% FBS-DMEM containing 34 μg of acetylated human low density lipoprotein (ac-LDL) to increase the intracellular concentration of cholesterol and promote esterification. At 41 hours, various inhibitors were added to the cells in DMSO (10 μl/ml maximum). At 43 hours, the cells were pulsed with 0.1 mM ^14 C-oleic acid (10,000 dpm/nmol) complexed with BSA (bovine serum albumin) to follow cholesterol ester formation. The experiment was terminated at 45 hours by washing the monolayers 3 times with 3 ml of Tris-buffered saline at 4° C. The lipids were extracted by incubating the monolayers with 1.5 ml of hexane:isopropanol (3:2, v/v) for 30 min. under gentle agitation. During this period, 10,000 dpm 3H-cholesteryl linoleate and 10 μg of cholesteryl oleate were added as an internal standard and carrier respectively. The organic solvent was removed and the cells were washed with an additional 1.0 ml of hexane: isopropanol which was combined with the original extract. The cells were allowed to dry overnight, digested with 1.5 ml of 0.2N sodium hydroxide for 1 hour and an aliquot of the solubilized protein used for protein determination using the Lowry method. The organic extract was taken to dryness, the residue resuspended in 100 μl of chloroform and the lipids separated on silica gel impregnated glass fiber plates using a hexane:diethylether:acetic acid (170:30:1, v/v/v) solvent system. Individual lipids were visualized with iodine and the cholesteryl ester spot cut out and transferred to scintillation vials to determine the amount of radioactivity. The conversion of oleic acid to cholesteryl ester in the control averaged 0.54 […] and was increased upon the addition of ac-LDL to about 10.69±0.69 […]. […] It should be noted that many of the intermediates had inhibitory activity in the in vitro ACAT assay and in the macrophage assay.

| SMILES | IC50 [1] | IC50 [2] |
| --- | --- | --- |
| CCCCCCCN(CCCCCSc1nc(-c2ccccc2OC)c(-c2ccccc2OC)[nH]1)C(=O)Nc1ccc(F)cc1F [Example 196, N-[5-[4,5-bis(2-methoxyphenyl)-1H-imidazol-2-ylthio]pentyl]-N'-(2,4-difluorophenyl)-N-heptylurea] | 300 nM | 1400 nM |
| CCCCCCCN(CCCCCSc1nc(-c2ccc(N(C)C)cc2)c(-c2ccc(N(C)C)cc2)[nH]1)C(=O)Nc1ccc(F)cc1F [Example 197, N-[5-[4,5-bis[4-(dimethylamino)phenyl]-1H-imidazol-2-ylthio]pentyl]-N'-(2,4-difluorophenyl)-N-heptylurea] | 119 nM | 100 nM |
| CCCCCCCN(CCCCCSc1nc(-c2ccc(N(C)C)cc2)c(-c2ccc(N(C)C)cc2)[nH]1)C(=O)Nc1ccc(F)cc1F [Example 198] | 40 nM | 60 nM |
| CCCCCCCN(CCCCCSc1nc(C2CCCCC2)c(C2CCCCC2)[nH]1)C(=O)Nc1ccc(F)cc1F [Example 199, N-[5-(4,5-dicyclohexyl-1H-imidazol-2-ylthio)pentyl]-N'-(2,4-difluorophenyl)-N-heptylurea] | 20 nM | 600 nM |
| CCCCCCCN(CCCCCSc1nc(-c2ccccc2)c(-c2ccc(N(C)C)cc2)[nH]1)C(=O)Nc1ccc(F)cc1F [Example 200] | 710 nM | 800 nM |
| CCCCCCCN(CCCCCSc1nc(-c2ccco2)c(-c2ccco2)[nH]1)C(=O)Nc1ccc(F)cc1F [Example 201] | 200 nM | 500 nM |
| CCCCCCCN(CCCCCSc1nc(-c2ccc(OC)cc2)c(-c2ccc(OC)cc2)[nH]1)C(=O)NC(C)C [Example 202, N-[5-[4,5-bis(4-methoxyphenyl)-1H-imidazol-2-ylthio]pentyl]-N-heptyl-N'-(1-methylethyl)urea] | 220 nM | 4 nM |
| COc1ccc(-c2nc(SCCCCCN(C)C(=O)Nc3ccc(F)cc3F)[nH]c2-c2ccc(OC)cc2)cc1 [Example 204] | 500 nM | 400 nM |
| CCCCCCCN(CCCCCSc1nc(-c2ccc(N(C)C)cc2)c(-c2ccc(N(C)C)cc2)[nH]1)C(=O)NC(C)C [Example 205, N-[5-[4,5-bis[4-(dimethylamino)phenyl]-1H-imidazol-2-ylthio]pentyl]-N-heptyl-N'-(1-methylethyl)urea] | 74 nM | 3 nM |
| CCCCCCCCNC(=O)N(CCCCCSc1nc(-c2ccccc2)c(-c2ccccc2)[nH]1)c1ccccc1 [Example 207, N-[5-(4,5-diphenyl-1H-imidazol-2-ylthio)pentyl]-N'-octyl-N-phenylurea] | 9 nM | 600 nM |
| CCCCCCCN(CCCCCSc1nc(-c2ccc(O)cc2)c(-c2ccc(O)cc2)[nH]1)C(=O)Nc1ccc(F)cc1F [Example 209, N-[5-[4,5-bis(4-hydroxyphenyl)-1H-imidazol-2-ylthio]pentyl]-N'-(2,4-difluorophenyl)-N-heptylurea] | 1400 nM | 4800 nM |
| CCCCCCCN(CCCCCSc1nc(C(C)C)c(C(C)C)[nH]1)C(=O)NC(C)C [Example 210] | 17 nM | 800 nM |
| CCCCCCCN(CCCCCSc1nc2c([nH]1)-c1ccccc1OCOc1ccccc1-2)C(=O)Nc1ccc(F)cc1F [Example 211, N-[5-(1H,9H-dibenz[4,5:8,9][1,3]dioxonino[6,7-d]imidazol-2-ylthio)-pentyl]-N'-(2,4-difluorophenyl)-N-heptylurea] | 32 nM | 700 nM |
| CCCCCCCN(CCCCCSc1nc2c([nH]1)-c1ccccc1Oc1ccccc1-2)C(=O)Nc1ccc(F)cc1F [Example 212, N-[5-(1H-dibenz[2,3:6,7]oxedino[4,5-d]imidazol-2-ylthio)pentyl]-N'-(2,4-difluorophenyl)-N-heptylurea] | 60 nM | 1700 nM |
| CCCCCCCN(CCCCCSc1nc(-c2ccc(C(F)(F)F)cc2)c(-c2ccc(C(F)(F)F)cc2)[nH]1)C(=O)Nc1ccc(F)cc1F [Example 258] | 40000 nM | 25000 nM |
| CCCCCCCN(CCCCCSc1nc(-c2ccccc2)c(-c2ccccc2)[nH]1)C(=S)NCCC [Example 299, N-[5-(4,5-diphenyl-1H-imidazol-2-ylthio)pentyl]-N-heptyl-N'-propylthiourea] | 140 nM | 1200 nM |
| CCCCCCCN(CCCCCSc1nc(-c2ccccc2)c(-c2ccccc2)[nH]1)C(=S)Nc1cccc(F)c1 [Example 300, N-[5-(4,5-diphenyl-1H-imidazol-2-ylthio)pentyl]-N'-(3-fluorophenyl)-N-heptylthiourea] | 130 nM | 900 nM |
| CCCCCCCN(CCCCCSc1nc(-c2ccccc2)c(-c2ccccc2)[nH]1)C(=O)CCC [Example 341, N-[5-(4,5-diphenyl-1H-imidazol-2-ylthio)pentyl]-N-heptylbutanamide] | 3 nM | 100 nM |
| CCCCCCCN(CCCCCSc1nc(-c2ccccc2)c(-c2ccccc2)[nH]1)C(=O)CCCC [Example 342, N-[5-(4,5-diphenyl-1H-imidazol-2-ylthio)pentyl]-N-heptylpentanamide] | 30 nM | 1600 nM |
| CCCCCCCN(CCCCCSc1nc(C(C)C)c(C(C)C)[nH]1)C(=O)CC1CCCCC1 [Example 347, N-[5-[4,5-bis(1-methylethyl)-1H-imidazol-2-ylthio]pentyl]-N-heptylcyclohexaneacetamide] | 30 nM | 300 nM |
| CCCCCCCN(CCCCCSc1nc(-c2ccc(OC)cc2)c(-c2ccc(OC)cc2)[nH]1)C(=O)CCC [Example 348, N-[5-[4,5-bis(4-methoxyphenyl)-1H-imidazol-2-ylthio]pentyl]-N-heptylbutanamide] | 700 nM | 200 nM |
| CCCCCCCN(CCCCCSc1nc(-c2ccc(OC)cc2)c(-c2ccc(OC)cc2)[nH]1)C(=O)Cc1ccc(Cl)c(Cl)c1 [Example 349] | 200 nM | 90 nM |
| CCCCCCCN(CCCCCSc1nc(-c2ccc(OC)cc2)c(-c2ccc(OC)cc2)[nH]1)C(=O)Cc1c(F)c(F)c(F)c(F)c1F [Example 350] | 605 nM | 50 nM |
